Measurements from ChEMBL document CHEMBL1201862, “PubChem BioAssay data set” (2004).
Activity calls are given as the source filed them.

Columns and labels:
[1] = target: Cytochrome P450 2C9 (Homo sapiens, UniProt P11712)
[2] = (§1) Counterscreen for antagonists of the orexin 1 receptor (OX1R; HCRTR1): Fluorescence-based cell-based high throughput dose response assay to identify antagonists of the parental CHO cell line. [Related pubchem assays (depositor defined):AID434989, AID435008, AID463079, AID485270, AID492963, AID492964, AID492965, AID493232, AID504699, AID504701]; type: functional
[3] = target: T1, Orexin/Hypocretin receptor type 1 (Homo sapiens, UniProt O43613); test: Homogeneous Time Resolved Fluorescence (HTRF)-based cell-based high throughput dose response assay for antagonists of the orexin 1 receptor (OX1R; HCRTR1). [Related pubchem assays (depositor defined):AID434989, AID435008, AID463079, AID485270, AID492963, AID492964, AID492965, AID493232, AID504717, AID504718]; type: functional
[4] = target: T2, Orexin receptor type 2 (Homo sapiens, UniProt O43614); test: Counterscreen assay for antagonists of the orexin 1 receptor (OX1R; HCRTR1): Fluorescence-based cell-based dose response assay for antagonists of the orexin 2 receptor (OX2R; HCRTR2), run by assay provider.; type: functional
[5] = tested on: CHO-K1; test: as §1, with “Homogeneous time resolved fluorescence (HTRF)-based” for “Fluorescence-based”, “cell-based” for “cell-based high throughput”, “CHO-K1” for “CHO”; type: functional; details: Cricetulus griseus;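 also: potency for inhibition of ATP-stimulated IP1 production as antagonists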
[6] = target: T2, Orexin receptor type 2; test: Counterscreen assay for antagonists of the orexin 1 receptor (OX1R; HCRTR1): Homogeneous Time Resolved Fluorescence (HTRF)-based cell-based dose response assay for antagonists of the orexin 2 receptor (OX2R; HCRTR2), run by assay provider.; type: functional
[7] = target: T1, Orexin/Hypocretin receptor type 1; test: Fluorescence-based cell-based high throughput dose response assay for antagonists of the orexin 1 receptor (OX1R; HCRTR1). [Related pubchem assays (depositor defined):AID434989, AID435008, AID463079, AID485270, AID492963, AID492964, AID492965, AID493232, AID504717, AID504718]; type: functional
[8] = viability loss in Mcl1-dependent HMC-1-8 cells, dose response, selectivity assay for A1 inhibitor project, cell-based, luminescence, dry powder (AID 504415); type: functional; details: Homo sapiens
[9] = target: T3, Sentrin-specific protease 8 (Homo sapiens, UniProt Q96LD8); test: SENP8 protease inhibitors, SAR follow-up, biochemical, luminescence (AID 504501); type: functional
T3 sequence (Q96LD8 whole entry): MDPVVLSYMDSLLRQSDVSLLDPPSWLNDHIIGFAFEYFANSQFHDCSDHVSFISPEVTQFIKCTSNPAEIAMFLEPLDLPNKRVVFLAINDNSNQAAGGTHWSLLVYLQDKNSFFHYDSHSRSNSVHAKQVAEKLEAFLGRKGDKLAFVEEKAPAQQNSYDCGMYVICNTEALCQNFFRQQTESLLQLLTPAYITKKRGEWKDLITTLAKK

[10] = target: T4, Sentrin-specific protease 7 (Homo sapiens, UniProt Q9BQF6); test: SENP7 protease inhibitors, SAR follow-up, biochemical, luminescence (AID 504497); type: functional
T4 sequence (Q9BQF6 whole entry): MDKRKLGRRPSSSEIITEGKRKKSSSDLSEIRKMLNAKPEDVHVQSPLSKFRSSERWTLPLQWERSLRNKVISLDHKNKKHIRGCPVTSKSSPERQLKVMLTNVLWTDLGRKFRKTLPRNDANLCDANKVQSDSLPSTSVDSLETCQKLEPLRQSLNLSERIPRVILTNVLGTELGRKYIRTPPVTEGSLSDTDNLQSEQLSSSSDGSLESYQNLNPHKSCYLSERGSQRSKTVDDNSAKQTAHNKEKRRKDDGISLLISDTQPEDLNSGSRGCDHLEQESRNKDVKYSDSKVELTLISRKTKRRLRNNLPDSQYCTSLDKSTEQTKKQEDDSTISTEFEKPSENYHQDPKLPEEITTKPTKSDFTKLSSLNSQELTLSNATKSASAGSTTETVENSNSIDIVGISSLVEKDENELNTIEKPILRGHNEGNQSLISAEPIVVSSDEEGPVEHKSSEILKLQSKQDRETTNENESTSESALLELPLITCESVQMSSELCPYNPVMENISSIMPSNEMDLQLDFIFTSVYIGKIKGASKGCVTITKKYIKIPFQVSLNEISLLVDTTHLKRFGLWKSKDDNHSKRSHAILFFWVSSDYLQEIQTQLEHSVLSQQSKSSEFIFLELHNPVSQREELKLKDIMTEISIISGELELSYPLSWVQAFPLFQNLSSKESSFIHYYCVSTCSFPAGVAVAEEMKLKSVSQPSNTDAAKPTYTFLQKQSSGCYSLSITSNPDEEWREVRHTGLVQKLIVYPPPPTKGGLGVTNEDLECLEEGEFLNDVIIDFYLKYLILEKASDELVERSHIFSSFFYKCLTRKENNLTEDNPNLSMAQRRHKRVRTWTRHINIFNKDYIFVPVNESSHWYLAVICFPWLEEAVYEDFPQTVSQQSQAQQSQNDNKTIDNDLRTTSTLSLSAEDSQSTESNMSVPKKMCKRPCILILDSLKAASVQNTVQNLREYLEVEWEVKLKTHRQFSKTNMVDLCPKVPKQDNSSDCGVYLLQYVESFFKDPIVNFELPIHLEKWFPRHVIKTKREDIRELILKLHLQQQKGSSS

[11] = target: T5, Sentrin-specific protease 6 (Homo sapiens, UniProt Q9GZR1); test: SAR Analysis of small molecule inhibitors of Sentrin-specific protease 6 (SENP6) using a Luminescent assay. [Related pubchem assays (depositor defined):AID2582, AID2599]; type: functional
T5 sequence (Q9GZR1 whole entry): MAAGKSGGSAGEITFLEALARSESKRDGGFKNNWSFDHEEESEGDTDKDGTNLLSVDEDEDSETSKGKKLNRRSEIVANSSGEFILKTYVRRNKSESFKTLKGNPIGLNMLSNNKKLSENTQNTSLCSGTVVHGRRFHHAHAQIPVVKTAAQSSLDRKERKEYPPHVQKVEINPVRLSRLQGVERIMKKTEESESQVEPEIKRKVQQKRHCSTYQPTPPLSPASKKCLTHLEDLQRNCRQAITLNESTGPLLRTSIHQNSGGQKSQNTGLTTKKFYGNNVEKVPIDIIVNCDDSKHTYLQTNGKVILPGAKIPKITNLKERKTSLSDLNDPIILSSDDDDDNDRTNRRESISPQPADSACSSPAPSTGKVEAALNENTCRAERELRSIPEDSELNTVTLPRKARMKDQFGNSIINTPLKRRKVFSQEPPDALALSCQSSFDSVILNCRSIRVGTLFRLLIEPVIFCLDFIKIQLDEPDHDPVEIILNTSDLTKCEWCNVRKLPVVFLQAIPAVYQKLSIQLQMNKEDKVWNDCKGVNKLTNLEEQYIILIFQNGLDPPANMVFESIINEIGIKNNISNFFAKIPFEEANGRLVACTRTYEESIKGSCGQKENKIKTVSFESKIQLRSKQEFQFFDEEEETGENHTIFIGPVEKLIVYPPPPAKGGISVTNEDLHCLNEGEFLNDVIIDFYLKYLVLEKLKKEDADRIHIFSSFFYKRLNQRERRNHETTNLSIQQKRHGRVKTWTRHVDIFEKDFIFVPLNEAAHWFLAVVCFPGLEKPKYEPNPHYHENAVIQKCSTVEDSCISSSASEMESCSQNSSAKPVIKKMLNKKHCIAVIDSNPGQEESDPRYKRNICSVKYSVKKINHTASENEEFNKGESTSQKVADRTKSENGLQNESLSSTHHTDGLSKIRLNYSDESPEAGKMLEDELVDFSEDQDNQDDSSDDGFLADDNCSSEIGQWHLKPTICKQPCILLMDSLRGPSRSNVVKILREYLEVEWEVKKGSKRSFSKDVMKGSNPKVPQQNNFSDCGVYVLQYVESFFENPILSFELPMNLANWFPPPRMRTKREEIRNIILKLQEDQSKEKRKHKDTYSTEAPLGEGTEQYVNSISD

[12] = target: T6, Caspase-3 (Homo sapiens, UniProt P42574); test: SAR Analysis of small molecule inhibitors of Sentrin-specific proteases (SENPs) using a Caspase-3 Selectivity assay. [Related pubchem assays (depositor defined):AID2540, AID2599, AID434973, AID489001]; type: functional
T6 sequence (P42574 whole entry): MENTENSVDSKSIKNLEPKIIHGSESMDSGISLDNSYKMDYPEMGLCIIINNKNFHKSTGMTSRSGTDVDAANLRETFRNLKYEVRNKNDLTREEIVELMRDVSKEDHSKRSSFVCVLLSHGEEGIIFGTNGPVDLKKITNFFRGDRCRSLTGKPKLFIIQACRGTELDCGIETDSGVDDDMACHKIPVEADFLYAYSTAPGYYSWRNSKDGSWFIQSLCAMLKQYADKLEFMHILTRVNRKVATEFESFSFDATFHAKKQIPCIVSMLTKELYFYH

[13] = target: T7, High affinity choline transporter 1 (Homo sapiens, UniProt Q9GZV3); test: CHT activators, dose response, cell-based, 10-point CRC, membrane potential dye (AID 602376); type: functional
T7 sequence (Q9GZV3 whole entry): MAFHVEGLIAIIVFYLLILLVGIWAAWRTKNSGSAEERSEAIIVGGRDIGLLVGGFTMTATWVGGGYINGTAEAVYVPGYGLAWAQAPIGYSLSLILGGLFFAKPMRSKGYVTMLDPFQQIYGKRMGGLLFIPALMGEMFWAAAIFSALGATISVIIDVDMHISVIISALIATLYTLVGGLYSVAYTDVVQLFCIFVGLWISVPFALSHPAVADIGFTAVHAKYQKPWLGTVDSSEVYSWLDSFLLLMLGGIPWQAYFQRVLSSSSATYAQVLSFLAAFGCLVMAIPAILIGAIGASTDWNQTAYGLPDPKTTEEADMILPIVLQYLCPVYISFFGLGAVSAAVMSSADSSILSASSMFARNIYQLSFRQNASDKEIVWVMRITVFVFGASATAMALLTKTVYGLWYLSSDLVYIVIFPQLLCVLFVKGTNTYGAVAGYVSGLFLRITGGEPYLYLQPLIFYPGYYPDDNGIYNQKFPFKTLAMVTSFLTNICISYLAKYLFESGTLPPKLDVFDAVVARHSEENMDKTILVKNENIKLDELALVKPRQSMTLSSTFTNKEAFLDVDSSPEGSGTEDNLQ

[14] = Vero cell cytotoxicity, cytotoxicity control for M. tuberculosis inhibitor project, purified and synthesized samples, set 8 (AID 602431); type: functional; details: Mycobacterium tuberculosis
[15] = THP-1 cell cytotoxicity, cytotoxicity control, set 6 (AID 602433); type: functional; details: Mycobacterium tuberculosis
[16] = HepG2 cell cytotoxicity, cytotoxicity control, set 6 (AID 602432); type: functional; details: Mycobacterium tuberculosis
[17] = target: Aurora kinase A (Homo sapiens, UniProt O14965); type: functional;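 also: value from the Navigating the Kinome kinase panel profiling, panel entry STK6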
[18] = target: Vascular endothelial growth factor receptor 2 (Homo sapiens, UniProt P35968); type: functional
[19] = target: Aurora kinase B (Homo sapiens, UniProt Q96GD4); type: functional
[20] = target: High affinity nerve growth factor receptor (Homo sapiens, UniProt P04629); type: functional;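 also: NTRK1 tested as one member of a kinome-wide profiling panel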
[21] = target: Cell division cycle 7-related protein kinase (Homo sapiens, UniProt O00311); type: functional;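 also: value obtained from a kinome-wide kinase panel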
[22] = target: Eukaryotic elongation factor 2 kinase (Homo sapiens, UniProt O00418); type: functional
[23] = target: Protein kinase C gamma type (Homo sapiens, UniProt P05129); type: functional
[24] = target: Lymphokine-activated killer T-cell-originated protein kinase (Homo sapiens, UniProt Q96KB5); type: functional;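 also: value comes from a kinase panel screen in which TOPK was one of the panel members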
[25] = target: Dual specificity tyrosine-phosphorylation-regulated kinase 3 (Homo sapiens, UniProt O43781); type: functional;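 also: measured as one member of a broad kinase panel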
[26] = target: Dual specificity tyrosine-phosphorylation-regulated kinase 4 (Homo sapiens, UniProt Q9NR20); type: functional
[27] = target: MAP kinase-activated protein kinase 3 (Homo sapiens, UniProt Q16644); type: functional;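 also: value comes from a kinome-wide profiling panel in which MAPKAPK3 is one of the panel members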
[28] = HeLa 2N DNA content increase, dose response, cell-based, IC50 (AID 1117349); type: functional
[29] = target: Testis-specific serine/threonine-protein kinase 2 (Homo sapiens, UniProt Q96PF2); type: functional;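 also: part of the Navigating the Kinome panel, target entry STK22B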
[30] = target: G protein-coupled receptor kinase 5 (Homo sapiens, UniProt P34947); test: Navigating the Kinome. Panel member name: GPRK5; type: functional
[31] = HeLa 4N DNA content increase, dose response, cell-based, IC50 (AID 1117351); type: functional

T2 sequence (O43614 whole entry): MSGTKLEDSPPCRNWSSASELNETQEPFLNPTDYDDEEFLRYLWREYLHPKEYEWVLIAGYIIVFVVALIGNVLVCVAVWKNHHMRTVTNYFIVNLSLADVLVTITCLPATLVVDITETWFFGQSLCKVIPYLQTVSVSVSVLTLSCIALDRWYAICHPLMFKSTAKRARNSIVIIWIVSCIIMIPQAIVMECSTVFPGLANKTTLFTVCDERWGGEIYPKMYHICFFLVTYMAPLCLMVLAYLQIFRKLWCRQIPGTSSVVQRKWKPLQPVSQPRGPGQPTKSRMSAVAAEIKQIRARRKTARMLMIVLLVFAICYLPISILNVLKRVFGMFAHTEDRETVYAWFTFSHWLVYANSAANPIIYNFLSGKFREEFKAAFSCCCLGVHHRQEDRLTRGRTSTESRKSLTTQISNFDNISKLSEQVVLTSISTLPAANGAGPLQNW
T1 sequence (O43613 whole entry): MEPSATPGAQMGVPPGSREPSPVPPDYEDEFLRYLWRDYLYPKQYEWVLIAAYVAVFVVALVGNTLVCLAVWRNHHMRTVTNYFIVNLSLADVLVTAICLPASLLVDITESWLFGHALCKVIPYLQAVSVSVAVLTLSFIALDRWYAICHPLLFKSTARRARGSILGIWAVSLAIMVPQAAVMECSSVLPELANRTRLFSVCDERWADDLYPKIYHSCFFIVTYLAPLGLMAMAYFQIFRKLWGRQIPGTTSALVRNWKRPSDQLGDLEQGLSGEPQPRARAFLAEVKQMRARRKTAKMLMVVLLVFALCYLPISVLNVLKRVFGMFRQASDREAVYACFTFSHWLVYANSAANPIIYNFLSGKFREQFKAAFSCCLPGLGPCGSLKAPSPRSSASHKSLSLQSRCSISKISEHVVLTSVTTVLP
Sequence of Eukaryotic elongation factor 2 kinase (O00418 whole entry): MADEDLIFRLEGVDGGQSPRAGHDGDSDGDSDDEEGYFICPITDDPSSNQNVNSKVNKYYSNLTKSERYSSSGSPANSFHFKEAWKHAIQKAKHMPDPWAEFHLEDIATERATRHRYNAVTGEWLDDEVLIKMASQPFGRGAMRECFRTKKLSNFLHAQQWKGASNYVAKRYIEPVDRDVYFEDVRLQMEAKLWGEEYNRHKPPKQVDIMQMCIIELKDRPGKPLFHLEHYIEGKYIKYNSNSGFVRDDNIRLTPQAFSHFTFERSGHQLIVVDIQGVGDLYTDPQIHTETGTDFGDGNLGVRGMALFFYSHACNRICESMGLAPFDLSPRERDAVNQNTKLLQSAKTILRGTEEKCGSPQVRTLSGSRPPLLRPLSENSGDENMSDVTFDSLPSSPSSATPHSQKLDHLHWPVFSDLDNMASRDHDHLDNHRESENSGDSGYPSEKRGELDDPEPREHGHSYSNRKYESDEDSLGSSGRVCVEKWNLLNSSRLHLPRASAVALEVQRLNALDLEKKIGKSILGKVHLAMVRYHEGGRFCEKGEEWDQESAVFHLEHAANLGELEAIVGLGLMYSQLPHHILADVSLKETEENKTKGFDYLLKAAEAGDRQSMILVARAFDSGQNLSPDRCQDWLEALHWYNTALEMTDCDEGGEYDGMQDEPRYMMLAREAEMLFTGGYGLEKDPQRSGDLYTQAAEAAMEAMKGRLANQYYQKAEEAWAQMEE
Sequence of Cell division cycle 7-related protein kinase (O00311 whole entry): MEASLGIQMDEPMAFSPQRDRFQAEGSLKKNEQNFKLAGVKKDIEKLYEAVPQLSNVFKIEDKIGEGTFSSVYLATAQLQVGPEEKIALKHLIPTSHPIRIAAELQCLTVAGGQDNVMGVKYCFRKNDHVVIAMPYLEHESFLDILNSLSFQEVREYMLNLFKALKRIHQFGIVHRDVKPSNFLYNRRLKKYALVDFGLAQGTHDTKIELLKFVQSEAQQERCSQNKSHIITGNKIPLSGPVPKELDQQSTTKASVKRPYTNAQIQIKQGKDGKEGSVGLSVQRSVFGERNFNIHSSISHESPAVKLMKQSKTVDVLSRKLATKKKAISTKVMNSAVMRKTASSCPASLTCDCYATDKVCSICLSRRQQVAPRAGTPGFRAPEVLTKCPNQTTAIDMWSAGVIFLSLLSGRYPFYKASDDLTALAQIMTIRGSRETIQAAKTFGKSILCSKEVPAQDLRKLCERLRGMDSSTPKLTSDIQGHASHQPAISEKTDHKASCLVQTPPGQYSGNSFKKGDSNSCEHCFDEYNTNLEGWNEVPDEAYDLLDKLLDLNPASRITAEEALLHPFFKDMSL
Sequence of High affinity nerve growth factor receptor (P04629 whole entry): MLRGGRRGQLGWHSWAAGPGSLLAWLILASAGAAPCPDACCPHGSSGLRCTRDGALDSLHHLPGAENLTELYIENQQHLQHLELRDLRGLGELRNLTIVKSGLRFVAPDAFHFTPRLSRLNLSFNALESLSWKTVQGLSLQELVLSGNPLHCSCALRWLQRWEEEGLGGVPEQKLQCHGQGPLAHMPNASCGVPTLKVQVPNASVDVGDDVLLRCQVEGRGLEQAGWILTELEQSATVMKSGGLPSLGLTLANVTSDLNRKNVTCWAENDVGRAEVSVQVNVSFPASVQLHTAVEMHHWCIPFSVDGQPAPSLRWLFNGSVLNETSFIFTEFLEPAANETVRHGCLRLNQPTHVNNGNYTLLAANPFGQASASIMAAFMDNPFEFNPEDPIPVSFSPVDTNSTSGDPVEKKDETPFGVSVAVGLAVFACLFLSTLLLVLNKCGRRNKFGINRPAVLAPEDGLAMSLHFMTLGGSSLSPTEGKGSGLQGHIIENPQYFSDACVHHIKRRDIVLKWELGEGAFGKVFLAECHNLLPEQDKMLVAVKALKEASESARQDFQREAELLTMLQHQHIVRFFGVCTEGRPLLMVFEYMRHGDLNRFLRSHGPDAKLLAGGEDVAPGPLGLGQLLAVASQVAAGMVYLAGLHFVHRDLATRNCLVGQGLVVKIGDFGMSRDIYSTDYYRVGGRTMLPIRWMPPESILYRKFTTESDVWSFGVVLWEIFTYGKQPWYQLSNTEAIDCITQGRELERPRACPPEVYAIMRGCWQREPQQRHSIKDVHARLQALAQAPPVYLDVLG
Sequence of Aurora kinase B (Q96GD4 whole entry): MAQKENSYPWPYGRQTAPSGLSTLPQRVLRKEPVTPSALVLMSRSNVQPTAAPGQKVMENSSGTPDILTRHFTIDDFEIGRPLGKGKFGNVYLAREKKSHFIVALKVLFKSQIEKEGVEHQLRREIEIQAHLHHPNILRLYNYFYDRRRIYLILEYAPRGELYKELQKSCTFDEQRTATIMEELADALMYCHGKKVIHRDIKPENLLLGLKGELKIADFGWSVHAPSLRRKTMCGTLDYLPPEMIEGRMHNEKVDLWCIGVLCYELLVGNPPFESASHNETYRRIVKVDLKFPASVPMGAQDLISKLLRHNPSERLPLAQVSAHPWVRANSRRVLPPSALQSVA
Sequence of Dual specificity tyrosine-phosphorylation-regulated kinase 3 (O43781 whole entry): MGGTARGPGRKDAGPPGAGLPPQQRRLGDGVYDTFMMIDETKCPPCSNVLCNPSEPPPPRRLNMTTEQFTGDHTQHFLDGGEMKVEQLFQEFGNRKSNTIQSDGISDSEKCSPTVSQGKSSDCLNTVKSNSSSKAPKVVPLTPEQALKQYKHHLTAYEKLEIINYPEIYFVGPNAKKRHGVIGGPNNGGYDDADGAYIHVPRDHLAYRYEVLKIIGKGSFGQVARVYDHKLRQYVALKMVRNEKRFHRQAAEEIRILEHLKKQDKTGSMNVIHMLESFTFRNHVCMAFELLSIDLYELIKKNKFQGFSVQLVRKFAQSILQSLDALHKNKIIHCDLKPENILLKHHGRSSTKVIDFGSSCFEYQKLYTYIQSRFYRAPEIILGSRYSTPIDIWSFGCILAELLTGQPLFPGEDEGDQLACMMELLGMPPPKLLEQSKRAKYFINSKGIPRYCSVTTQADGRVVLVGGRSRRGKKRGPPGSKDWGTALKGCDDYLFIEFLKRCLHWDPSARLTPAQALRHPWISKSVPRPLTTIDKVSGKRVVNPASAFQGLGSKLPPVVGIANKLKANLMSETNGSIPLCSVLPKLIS
Sequence of MAP kinase-activated protein kinase 3 (Q16644 whole entry): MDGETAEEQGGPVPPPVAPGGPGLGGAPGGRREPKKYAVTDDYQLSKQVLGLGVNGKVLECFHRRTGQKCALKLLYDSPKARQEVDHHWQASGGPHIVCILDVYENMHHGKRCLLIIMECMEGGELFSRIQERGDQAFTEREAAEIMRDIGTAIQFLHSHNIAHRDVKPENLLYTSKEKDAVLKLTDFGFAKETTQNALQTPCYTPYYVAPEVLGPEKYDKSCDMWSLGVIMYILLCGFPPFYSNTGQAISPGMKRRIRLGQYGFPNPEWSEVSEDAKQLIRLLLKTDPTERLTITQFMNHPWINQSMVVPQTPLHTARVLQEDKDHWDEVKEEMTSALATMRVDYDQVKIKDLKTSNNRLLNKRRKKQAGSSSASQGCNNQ

CCn1c(SCC(=O)c2ccc3ccccc3c2)nnc1-c1cccs1
AC50 [1]: 17.8 µM (inconclusive) | IC50 [2]: > 49.8 µM (inactive) | IC50 [3]: 6.66 µM (active) | IC50 [4]: > 88.8 µM (inactive) | IC50 [5]: > 66.2 µM (inactive) | IC50 [6]: > 50 µM (inactive) | IC50 [7]: 17.6 µM (inactive)

Cn1c(=O)c([N+](=O)[O-])c(Nc2ccc(Cl)cc2)c2ccccc21
AC50 [8]: > 350 µM (inactive)

CC(C)(C)CC(=O)Nc1ccc(-c2nc3cc(Cl)ccc3s2)cc1
IC50 [9]: > 99 µM (inactive) | IC50 [10]: > 99 µM (inactive) | IC50 [11]: > 99 µM (inactive) | IC50 [12]: > 99 µM (inactive)

CC(C)C(=O)N1CCN(c2ccccc2NC(=O)c2ccc(C#N)cc2F)CC1
EC50 [13]: 12.9 µM (active)

COc1ccc(N2CCN(C(=O)c3ccc(CNC(=O)NCc4ccc(Cl)cc4)cc3)CC2)cc1
CC50 [14]: 29.4 µM (active) | CC50 [15]: > 100 µM (inconclusive) | CC50 [16]: > 50 µM (active)

CCS(=O)(=O)c1ccc(-c2ccc(-c3n[nH]c4c3Cc3cc(O)c(OC)cc3-4)cc2)cc1
Ki [17]: 0.794 µM (active) | Ki [18]: 1.26 µM (active) | Ki [19]: 0.000794 µM (active) | Ki [20]: 3.98 µM (active)

Cc1nc(Nc2ncc(C(=O)Nc3c(C)cccc3Cl)s2)cc(N2CCN(CCO)CC2)n1 [DASATINIB]
Ki [21]: > 1.26 µM (inactive) | Ki [22]: > 3.98 µM (inactive) | Ki [23]: > 7.94 µM (inactive) | Ki [24]: > 10 µM (inactive) | Ki [25]: 1.26 µM (active) | Ki [26]: > 7.94 µM (inactive) | Ki [27]: > 10 µM (inactive) | IC50 [28]: > 10 µM (inactive) | Ki [29]: > 1.58 µM (inactive) | Ki [30]: > 3.98 µM (inactive) | IC50 [31]: > 10 µM (inactive)
